Source: US6599283B1, “Method of preventing reperfusion injury” (priority 2001, dated 2003)

Tests used:
[1] = tested on: AMI patients undergoing primary PTCA; settings: in vivo
Procedure: (§1) Fifty four AMI patients undergoing primary PTCA were randomized to intracoronary adenosine or saline. The 2 groups were similar for age, sex, and infarct location. Patients referred for PTCA within 3 hours from the onset of AMI were considered for the study. Patients underwent diagnostic coronary angiography. If the culprit lesion was suitable for PTCA and presented with a TIMI flow from 0 to 2, the patient was included in the study and randomized after informed consent had been obtained. Patients presenting with TIMI 3 flow were diagnosed as having spontaneous reperfusion and were not included in the study.
After left and right coronary arteriography by the femoral approach, a temporary pacing wire was advanced into the right ventricle and connected with a pacemaker left on demand at 60 bpm. […] The guidewire was then readvanced into the distal vessel, and the balloon was deflated to initiate reperfusion of the ischemic territory. […]
(§2) The primary end points of this study were feasibility and safety of intracoronary adenosine administration in the setting of primary PTCA and its effect on coronary blood flow. As secondary end points, indexes of myocardial damage, including left ventricular regional function, Q-wave MI, recurrence of angina, nonfatal MI, heart failure, and cardiac death were evaluated.

infarct-related artery = assay: Angiographic analysis (residual stenosis, TIMI flow, no-reflow) after primary PTCA; assay type: in vivo, human
Procedure: as §1
After left and right coronary arteriography by the femoral approach, a temporary pacing wire was advanced into the right ventricle and connected with a pacemaker left on demand at 60 bpm. The obstruction of the infarct-related artery was crossed with a 0.014-in guidewire, and an over-the-wire balloon catheter was positioned at the level of the obstruction. The wire was pulled out, and diluted contrast was injected through the central lumen of the catheter to confirm positioning of the catheter tip downstream of the obstruction and to assess patency of the distal vessel. The balloon was inflated, and either adenosine (4 mg in 2 mL saline) or saline (2 mL) was hand-injected into the distal vascular bed in a random fashion. The rate of injection was such as to complete treatment in 1 minute. The guidewire was then readvanced into the distal vessel, and the balloon was deflated to initiate reperfusion of the ischemic territory. The dilatation procedure was completed according to standard technique. Stenting of the dilated coronary segment was performed only for suboptimal balloon results or flow-limiting dissections. […]
The angiograms were reread as a single group, in chronological sequence, by observers who had not participated in the invasive procedure and were blinded to the treatment received. […] Diameter stenosis was measured by an automatic edge-detection system (Mipron, Kontron). […]

[2] = tested on: AMI patients undergoing primary PTCA; assay: Clinical events / clinical course in hospital after primary PTCA; assay type: in vivo, human
Procedure: as §1
(§3) After left and right coronary arteriography by the femoral approach, a temporary pacing wire was advanced into the right ventricle and connected with a pacemaker left on demand at 60 bpm. The obstruction of the infarct-related artery was crossed with a 0.014-in guidewire, and an over-the-wire balloon catheter was positioned at the level of the obstruction. The wire was pulled out, and diluted contrast was injected through the central lumen of the catheter to confirm positioning of the catheter tip downstream of the obstruction and to assess patency of the distal vessel. The balloon was inflated, and either adenosine (4 mg in 2 mL saline) or saline (2 mL) was hand-injected into the distal vascular bed in a random fashion. The rate of injection was such as to complete treatment in 1 minute. The guidewire was then readvanced into the distal vessel, and the balloon was deflated to initiate reperfusion of the ischemic territory. The dilatation procedure was completed according to standard technique. Stenting of the dilated coronary segment was performed only for suboptimal balloon results or flow-limiting dissections. […] The final angiogram was then obtained, and the patient was transferred to the intensive coronary care unit. If symptoms and/or ECG changes consistent with vessel reclosure occurred during this interval, coronary angiography was performed immediately, and therapeutic measures were applied. The dilation procedure was limited to the culprit lesion in all patients.
as §2
Physicians in charge of the patients in the intensive coronary care unit were informed of the angiographic results of the PTCA but were blinded to the intracoronary treatment administered during the procedure.

[3] = tested on: AMI patients undergoing primary PTCA; assay: Metabolic data: creatine kinase (CK) and CK-MB; assay type: in vivo, human; settings: mean ± SD
Procedure: as §1
After left and right coronary arteriography by the femoral approach, a temporary pacing wire was advanced into the right ventricle and connected with a pacemaker left on demand at 60 bpm. The obstruction of the infarct-related artery was crossed with a 0.014-in guidewire, and an over-the-wire balloon catheter was positioned at the level of the obstruction. The wire was pulled out, and diluted contrast was injected through the central lumen of the catheter to confirm positioning of the catheter tip downstream of the obstruction and to assess patency of the distal vessel. […] The guidewire was then readvanced into the distal vessel, and the balloon was deflated to initiate reperfusion of the ischemic territory. […]

left ventricle = assay: Left ventricular regional function by 2D echocardiography; assay type: in vivo, human; settings: echocardiogram after 1 week vs admission
Procedure: as §1, §3
Left ventricular function was evaluated by 2D echocardiography within 24 hours from admission and after 1 week. Echocardiography was performed with the patient lying supine with a 2.5-MHz transducer fitted to a dedicated system (Hewlett-Packard Sonos 1500). Images were recorded on S-VHS tapes and analyzed offline by 2 experienced observers blinded to the angiographic data. Four views were used: the parasternal long- and short-axis (at the level of the papillary muscle) and apical 2- and 4-chamber views. The left ventricle was divided into 16 segments. In each segment, wall motion was graded as normal, hypokinetic, akinetic, or dyskinetic. Segmental motion at admission was compared with segmental motion at 1 week to detect changes of regional function.

[4] = intracoronary adenosine 4 mg in 2 mL saline, n = 27

Nc1ncnc2c1ncn2[C@@H]1O[C@H](CO)[C@@H](O)[C@H]1O [Adenosine, adenosine]
Bradyarrhythmias or tachyarrhythmias associated with protocol [1]: No bradyarrhythmias or tachyarrhythmias | Residual diameter stenosis by quantitative coronary arteriography (infarct-related artery; after PTCA, mean ± SD): 27.8±9.5% | Flow in the infarct-related artery (TIMI grade) (infarct-related artery; at the end of the dilation procedure): TIMI 3 in all adenosine patients | No-reflow phenomenon (drop of ≧1 TIMI grades in final angiogram relative to post-PTCA angiogram) (infarct-related artery; final angiogram 30 minutes after dilation, n = 27): 1 patient | Length of hospital stay ([2]; hospital stay): 9.1 ± 0.8 days | Recurrent angina and/or ischemia ([2]; intracoronary adenosine 4 mg in 2 mL saline into distal vascular bed before balloon deflation, n = 27): 3(11) number (%) of patients | Cardiac death [2, 4]: 0(0) number (%) of patients | Cumulative clinical end points (recurrent angina and/or ischemia, non-fatal AMI, heart failure, cardiac death) [2, 4]: 5(18) number (%) of patients | Heart failure [2, 4]: 2(7) number (%) of patients | Nonfatal AMI [2, 4]: 0(0) number (%) of patients | Clinical diagnosis of heart failure ([2]; n = 27): Two | Composite end point of recurrent angina, nonfatal MI, heart failure, and cardiac death ([2]; n = 27): 5 patients | Deaths in hospital ([2]; n = 27): No deaths | Developed a Q-wave ML ([2]; n = 27): Sixteen | Recurrence of angina ([2]; n = 27): Three | Peak CK [3]: 1994±1782 U/L | Peak CK-MB [3]: 156±142 UAL | Regional wall motion unchanged (left ventricle): 38 segments | Worsening of wall motion, share of segments (left ventricle): 2% | Wall motion improved, share of initially dyssynergic segments (left ventricle; 114 dyssynergic segments): 64% | Worsening of wall motion (left ventricle; 114 dyssynergic segments): 3 segments | Wall motion improved, initially dyssynergic segments (left ventricle; 114 dyssynergic segments, 23 patients): 73 segments
